Measured values from PMC8523698, “Preclinical characterization of an intravenous coronavirus 3CL protease inhibitor for the potential treatment of COVID19” (Nature Communications, 2021).
Values joined by “and” are separate entries in the source; they are usually repeats but may differ in a detail not shown here. Equal entries are not always repeated. Where two headings read alike, the source gives them in different places.

Columns and labels:
[1] = Human pharmacokinetic, Ceff and dose predictions; conditions: Fig 6C reference line, drawn from 0 to 72 h; head gives 500 nM
[2] = read-out: competitive Ki; vendor-verified compound file; ref Simcyp library; cited from earlier work
[3] = tested on: SARS-CoV-2 Washington strain 1 (USA_WA1/2020); assay type: cell-based; set-up: Percent Effect / Percent Effect (EC50 data): scale not given: direction of the effect not stated beside the values
HCoV-229E = assay: Viral CPE assay in MRC-5 cells (CellTiter Glo); assay type: cell-based
MRC-5 cells = assay: Cytotoxicity in MRC-5 cells
MDR1/P-gp = MDR1/P-gp (Homo sapiens, UniProt P08183); assay: Transporter inhibition using membrane vesicles; conditions: uptake of N-methyl quinidine by MDR1; control inhibitor concentration 4.000 uM; single replicates
MDR1/P-gp, sequence (P08183 whole entry, the tested form may be a part): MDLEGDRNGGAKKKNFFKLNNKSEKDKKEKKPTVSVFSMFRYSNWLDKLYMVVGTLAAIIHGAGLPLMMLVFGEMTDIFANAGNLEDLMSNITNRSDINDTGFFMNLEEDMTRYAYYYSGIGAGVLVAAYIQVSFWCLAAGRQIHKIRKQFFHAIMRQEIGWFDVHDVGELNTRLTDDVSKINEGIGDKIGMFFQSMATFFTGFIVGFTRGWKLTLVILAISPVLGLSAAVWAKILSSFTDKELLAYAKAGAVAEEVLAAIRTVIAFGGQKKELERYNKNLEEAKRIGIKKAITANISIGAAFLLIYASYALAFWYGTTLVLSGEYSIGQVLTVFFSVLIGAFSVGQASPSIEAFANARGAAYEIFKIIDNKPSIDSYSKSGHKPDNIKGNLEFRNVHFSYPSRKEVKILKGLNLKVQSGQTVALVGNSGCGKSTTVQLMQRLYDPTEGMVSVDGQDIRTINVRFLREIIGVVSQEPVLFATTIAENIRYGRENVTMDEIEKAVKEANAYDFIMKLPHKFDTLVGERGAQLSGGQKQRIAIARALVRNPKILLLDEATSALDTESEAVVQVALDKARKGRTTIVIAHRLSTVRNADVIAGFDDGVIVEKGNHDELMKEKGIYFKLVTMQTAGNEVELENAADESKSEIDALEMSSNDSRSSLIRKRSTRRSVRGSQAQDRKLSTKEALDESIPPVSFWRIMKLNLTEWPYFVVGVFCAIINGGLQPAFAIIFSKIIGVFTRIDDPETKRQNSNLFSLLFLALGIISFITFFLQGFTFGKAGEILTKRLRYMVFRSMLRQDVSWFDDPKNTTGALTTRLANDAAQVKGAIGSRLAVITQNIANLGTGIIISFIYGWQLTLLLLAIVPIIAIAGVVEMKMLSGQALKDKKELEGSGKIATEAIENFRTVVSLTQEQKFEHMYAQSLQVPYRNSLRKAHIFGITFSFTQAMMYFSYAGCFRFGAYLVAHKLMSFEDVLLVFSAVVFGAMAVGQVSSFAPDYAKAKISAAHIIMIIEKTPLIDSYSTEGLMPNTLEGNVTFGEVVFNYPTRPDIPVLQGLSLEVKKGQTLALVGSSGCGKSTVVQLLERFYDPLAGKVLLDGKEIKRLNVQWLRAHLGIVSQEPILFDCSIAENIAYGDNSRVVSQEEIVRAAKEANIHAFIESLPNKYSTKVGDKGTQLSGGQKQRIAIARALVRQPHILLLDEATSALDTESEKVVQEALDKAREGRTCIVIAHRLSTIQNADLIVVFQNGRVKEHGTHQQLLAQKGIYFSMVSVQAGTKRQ

[4] = Rat 24-h continuous intravenous infusion GLP toxicity study; assay type: in vivo, Sprague-Dawley rats; conditions: Fig 6C reference line 0 to 72 h

COc1cccc2[nH]c(C(=O)N[C@@H](CC(C)C)C(=O)N[C@@H](C[C@@H]3CCNC3=O)C(=O)CO)cc12 [Active]
Ceff SARS-COV2 (+P-gp inhib)= 500 nM [1]: 0.5

CC(O)C(C)n1ncn(-c2ccc(N3CCN(c4ccc(OCC5COC(Cn6cncn6)(c6ccc(Cl)cc6Cl)O5)cc4)CC3)cc2)c1=O (stereo not drawn) [OH-itraconazole]
Ki [2]: 0.0023 µM

COc1cccc2[nH]c(C(=O)N[C@@H](CC(C)C)C(=O)N[C@@H](C[C@@H]3CCNC3=O)C(=O)COP(=O)(O)O)cc12 [PF-07304814-00]
Percent Effect ([3]; 0.00976562 uM): 0.053% and 0.085%
Percent Effect ([3]; 0.0195312 uM): 2.09% and 3.15%
Percent Effect ([3]; 0.0390625 uM): 0.085% and 9.35%
Percent Effect ([3]; 0.078125 uM): -0.27% and 0.54%
Percent Effect (EC50 data) ([3]; 0.195312 uM): -0.82%
Percent Effect ([3]; 0.3125 uM): 2.28% and 1.63%
Percent Effect ([3]; 0.390625 uM): 7.76% and 0.81% and 1.70% and 4.09% and 0.21% and 2.38% and 2.51% and 3.73%
Percent Effect (EC50 data) ([3]; 0.390625 uM): -0.72%
Percent Effect ([3]; 0.625 uM): -1.46% and -0.53%
Percent Effect (EC50 data) ([3]; 0.78125 uM): 8.72% and 9.53%
Percent Effect (EC50 data) ([3]; 3.125 uM): 96.73% and 101.34%
Percent Effect (EC50 data) ([3]; 5 uM): 98.13% and 94.20%
Percent Effect (EC50 data) ([3]; 6.25 uM): 105.65% and 94.43%
Percent Effect (EC50 data) ([3]; 25 uM): 105.56%
Percent Effect (EC50 data) ([3]; 31.6456 uM): 95.69% and 95.38% and 91.49% and 94.38%
Percent Effect (EC50 data) ([3]; 50 uM): 95.66%
Percent Effect (EC50 data) ([3]; 100 uM): 87.92% and 94.81% and 91.90% and 95.50%
% Well Effect (EC50 data) (HCoV-229E; minus efflux inhibitor, 0.000949 uM): 1.31% and -4.82% and -7.06% and -4.29% and -0.06%
% Well Effect (EC50 data) (HCoV-229E; minus efflux inhibitor, 0.300053 uM): 80.07% and 80.97% and 97.35% and 80.44% and 65.29% and 92.74%
% Well Effect (EC50 data) (HCoV-229E; minus efflux inhibitor, 0.948767 uM): 81.04% and 93.59% and 91.22% and 85.19% and 91.91% and 88.72%
% Well Effect (EC50 data) (HCoV-229E; minus efflux inhibitor, 3 uM): 79.54% and 90.29% and 94.42% and 83.20% and 94.29% and 89.17%
% Well Effect (EC50 data) (HCoV-229E; plus 0.5 uM efflux inhibitor, 0.094893 uM): 70.28% and 62.16% and 55.71% and 62.75% and 53.71% and 73.85%
% Well Effect (EC50 data) (HCoV-229E; plus 0.5 uM efflux inhibitor, 0.300053 uM): 83.32% and 95.05% and 90.93% and 79.15% and 93.97% and 90.05%
% Well Effect (EC50 data) (HCoV-229E; plus 0.5 uM efflux inhibitor, 0.948767 uM): 82.39% and 96.75% and 87.38% and 79.38% and 95.45% and 97.43%
% Well Effect (EC50 data) (HCoV-229E; plus 0.5 uM efflux inhibitor, 3 uM): 80.02% and 92.89% and 93.90% and 81.60% and 91.07% and 95.86%
% Well Effect (CC50 data) (MRC-5 cells; minus efflux inhibitor, 0.031642 uM): -10.74%
% Well Effect (CC50 data) (MRC-5 cells; minus efflux inhibitor, 0.100053 uM): -6.45% and -4.39%
% Well Effect (CC50 data) (MRC-5 cells; minus efflux inhibitor, 3.16311 uM): -8.68%
% Well Effect (CC50 data) (MRC-5 cells; minus efflux inhibitor, 10.0018 uM): -6.54%
% Well Effect (CC50 data) (MRC-5 cells; plus 0.5 uM efflux inhibitor, 0.031642 uM): -2.54% and -3.43%
% Well Effect (CC50 data) (MRC-5 cells; plus 0.5 uM efflux inhibitor, 0.100053 uM): -2.51% and -2.24% and 4.92%
% Well Effect (CC50 data) (MRC-5 cells; plus 0.5 uM efflux inhibitor, 1.00035 uM): -1.28% and -4.08%
% Well Effect (CC50 data) (MRC-5 cells; plus 0.5 uM efflux inhibitor, 3.16311 uM): 5.87% and 5.13%
% Well Effect (CC50 data) (MRC-5 cells; plus 0.5 uM efflux inhibitor, 31.6256 uM): -2.89% and -4.52%
% Well Effect (CC50 data) (MRC-5 cells; plus 0.5 uM efflux inhibitor, 100 uM): 2.77% and -3.47% and 5.60% and -0.62%

COc1cccc2[nH]c(C(=O)N[C@@H](CC(C)C)C(=O)N[C@@H](C[C@@H]3CCNC3=O)C(=O)COP(=O)(O)O)cc12 [PF-073048141]
CC50 (VeroE6-EGFP cells): > 50 µM
CC50 (VeroE6-EGFP cells; n=2): > 50 µM

C/C=C/C[C@@H](C)C(=O)[C@H]1C(=O)N[C@@H](C(C)C)C(=O)N(C)CC(=O)N(C)[C@@H](CC(C)C)C(=O)N[C@@H](C(C)C)C(=O)N(C)[C@@H](CC(C)C)C(=O)N[C@@H](C)C(=O)N[C@H](C)C(=O)N(C)[C@@H](CC(C)C)C(=O)N(C)[C@@H](CC(C)C)C(=O)N(C)[C@@H](C(C)C)C(=O)N1C [PSC833]
% PGP Uptake Activity (MDR1/P-gp): 0.2057% (2×) and -0.01029% (2×) and -0.1954% (2×)

COc1cccc2[nH]c(C(=O)N[C@@H](CC(C)C)C(=O)N[C@@H](C[C@@H]3CCNC3=O)C(=O)COP(=O)(O)O)cc12 [Pf-4814]
Reg tox Day 1 Rat with Pf-4814 Actove (Cave, uM) ([4]; Day 1, dosed with Pf-4814, Cave of active): 10.7 µM

COc1cccc2[nH]c(C(=O)N[C@@H](CC(C)C)C(=O)N[C@@H](C[C@@H]3CCNC3=O)C(=O)CO)cc12 [Pf-5231]
Reg tox Day 1 Rat with Pf-5231 Actove (Cave,uM) ([4]; Day 1, dosed with Pf-5231, Cave of active): 10.7 µM
